Measured values from patent publication US8710228B2, “Cycloalkylamine substituted isoquinoline derivatives” (Sanofi, priority 2006, dated 2014).

Target: T1, ROCKII or ROKα (Rattus norvegicus, UniProt Q62868)
T1 construct: purchased Upstate 14-451
Experiment: Determination of Rho kinase inhibition (33P-ATP, Streptavidin Flash Plate)
Assay type: biochemical
Conditions: ATP 40 μM, activity denoted as pIC50 classes
Method: Determination of Rho Kinase Inhibition
To measure Rho-kinase inhibition, IC50 values were determined according to the following protocol:
Buffer: 25 mM Tris pH7.5; 0.02% BSA; 5% Glycerol; 0.008% Triton X100; 2% DMSO, 1 mM DTT; 1 mM MgCl2; 0.5 μCi/well γ^33P ATP
Enzyme: ROCKII or ROKα) (Upstate, Catalog #14-451 Lot # 24880U) 0.1 ng/μl
Final concentration of ATP in reaction mixture 40 μM
Biotinylated substrate, diluted to 0.25 μM with buffer described above (without ATP) • 1. 10 μl Tris buffer (±Inhibitor) • 2. Add 30 μL of enzyme solution • 3. Start the reaction with 30 μL of mix substrate/ATP/ATP33 • 4. Incubate for 20 min at room temperature • 5. Stop reaction with 30 μL of 50 mM EDTA • 6. Transfer 50 μL of stopped solution to Streptavidin Flash Plate plus, Perkin Elmer, SMP 103A • 7. Incubate for 30 min at RT • 8. Wash 4 times with 300 μl of PBS/0.1% Tween 20 • 9. Radioactivity in the well was determined

T1 sequence (Q62868 11-552 limits assumed): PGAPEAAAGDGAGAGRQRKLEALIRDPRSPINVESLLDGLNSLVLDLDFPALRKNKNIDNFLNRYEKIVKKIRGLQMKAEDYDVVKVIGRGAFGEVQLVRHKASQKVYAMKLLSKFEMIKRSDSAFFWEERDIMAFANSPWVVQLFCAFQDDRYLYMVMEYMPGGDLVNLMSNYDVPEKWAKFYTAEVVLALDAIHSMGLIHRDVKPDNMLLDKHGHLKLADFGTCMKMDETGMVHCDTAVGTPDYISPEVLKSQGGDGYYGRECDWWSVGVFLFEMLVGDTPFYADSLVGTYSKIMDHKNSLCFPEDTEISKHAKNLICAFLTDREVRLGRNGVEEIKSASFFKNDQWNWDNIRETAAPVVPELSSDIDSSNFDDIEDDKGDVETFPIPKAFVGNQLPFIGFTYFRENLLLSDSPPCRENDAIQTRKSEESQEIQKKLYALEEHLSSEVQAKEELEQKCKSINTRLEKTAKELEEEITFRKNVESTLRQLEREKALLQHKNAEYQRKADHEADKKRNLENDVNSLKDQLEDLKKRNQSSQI

Compound | IC50
CC1(c2ccc(CNC3CCC(Oc4ccc5cnccc5c4)CC3)cc2)NC(=O)NC1=O.O=C(O)C(F)(F)F (mixture of isomers) [Example 38, 5-(4-{[4-(isoquinolin-6-yloxy)-cyclohexylamino]-methyl}-phenyl)-5-methyl-imidazolidine-2,4-dione] | +++++ (6.0 ≦ pIC50)
CC(C)CN(C)C1CCC(Oc2ccc3cnccc3c2)CC1.O=C(O)C(F)(F)F (mixture of isomers) [Example 45, Isobutyl-[4-(isoquinolin-6-yloxy)-cyclohexyl]-methyl-amine] | ++++ (5.0 ≦ pIC50 < 6.0)
CN(Cc1cnn(-c2ccc(F)cc2)c1)C1CCC(Oc2ccc3cnccc3c2)CC1.O=C(O)C(F)(F)F (mixture of isomers) [Example 52, [1-(4-Fluoro-phenyl)-1H-pyrazol-4-ylmethyl]-[4-(isoquinolin-6-yloxy)-cyclohexyl]-methyl-amine] | ++++ (5.0 ≦ pIC50 < 6.0)
O=C(O)C(F)(F)F.c1ccc2c(CNC3CCC(Oc4ccc5cnccc5c4)CC3)cccc2c1 (mixture of isomers) [Example 54, [4-(Isoquinolin-6-yloxy)-cyclohexyl]-naphthalen-1-ylmethyl-amine] | ++++ (5.0 ≦ pIC50 < 6.0)
O=C(O)C(F)(F)F.c1csc(-c2nc(CNC3CCC(Oc4ccc5cnccc5c4)CC3)cs2)c1 (mixture of isomers) [Example 58, [4-(Isoquinolin-6-yloxy)-cyclohexyl]-(2-thiophen-2-yl-thiazol-4-ylmethyl)-amine] | ++++ (5.0 ≦ pIC50 < 6.0)
N[C@H]1CC[C@@H](Oc2ccc3cnccc3c2Cl)CC1 [Example 13, cis-4-(5-Chloro-isoquinolin-6-yloxy)-cyclohexylamine] | +++++ (6.0 ≦ pIC50)
N[C@H]1CC[C@@H](Oc2ccc3cncc(Cl)c3c2)CC1 [Example 14, cis-4-(4-Chloro-isoquinolin-6-yloxy)-cyclohexylamine] | +++++ (6.0 ≦ pIC50)
N[C@H]1CC[C@@H](Oc2ccc3cnccc3c2Br)CC1 [Example 19, cis-4-(5-Bromo-isoquinolin-6-yloxy)-cyclohexylamine] | +++++ (6.0 ≦ pIC50)
c1cncc(CN[C@H]2CC[C@@H](Oc3ccc4cnccc4c3)CC2)c1 [Example 23, cis-[4-(Isoquinolin-6-yloxy)-cyclohexyl]-pyridin-3-ylmethyl-amine] | +++++ (6.0 ≦ pIC50)
CC(C)N[C@H]1CC[C@@H](Oc2ccc3cnccc3c2)CC1 [Example 26, Isopropyl-cis-[4-(isoquinolin-6-yloxy)-cyclohexyl]-amine] | +++++ (6.0 ≦ pIC50)
CCOC(=O)N1CCN(C2CCC(Oc3ccc4cnccc4c3)CC2)CC1.O=C(O)C(F)(F)F (stereo not shown) [Example 44, 4-[4-(Isoquinolin-6-yloxy)-cyclohexyl]-piperazine-1-carboxylic acid ethyl ester] | ++++ (5.0 ≦ pIC50 < 6.0)

Further lines, results first:

IC50 | Compound
+++++ (6.0 ≦ pIC50) | c1cc2cc(O[C@H]3CC[C@@H](NC4CC4)CC3)ccc2cn1 [Example 64, cis-Cyclopropyl-[4-(isoquinolin-6-yloxy)-cyclohexyl]-amine]
+++++ (6.0 ≦ pIC50) | CC(=O)Nc1ccc(CN[C@H]2CC[C@@H](Oc3ccc4cnccc4c3)CC2)cc1 [Example 72, cis-N-(4-{[4-(Isoquinolin-6-yloxy)-cyclohexylamino]-methyl}-phenyl)-acetamide]
+++++ (6.0 ≦ pIC50) | CN(C)/C=N/S(=O)(=O)c1cc(CN[C@H]2CC[C@@H](Oc3ccc4cnccc4c3Cl)CC2)ccc1Cl [Example 74, 2-Chloro-5-{cis-[4-(5-chloro-isoquinolin-6-yloxy)-cyclohexylamino]-methyl}-N-dimethylaminomethylene-benzenesulfonamide]
+++++ (6.0 ≦ pIC50) | Clc1c(OC2CCC(NC3CCCCC3)CC2)ccc2cnccc12 (stereo not shown) [Example 80, [4-(5-Chloro-isoquinolin-6-yloxy)-cyclohexyl]-cyclohexyl-amine]
+++++ (6.0 ≦ pIC50) | Cl.N[C@H]1CC[C@@H](Oc2ccc3cnccc3c2-c2ccsc2)CC1 [Example 87, cis-4-(5-Thiophen-3-yl-isoquinolin-6-yloxy)-cyclohexylamine]
+++++ (6.0 ≦ pIC50) | C=Cc1c(O[C@H]2CC[C@@H](N)CC2)ccc2cnccc12.Cl [Example 90, cis-4-(5-Vinyl-isoquinolin-6-yloxy)-cyclohexylamine]
+++++ (6.0 ≦ pIC50) | N[C@H]1CC[C@H](Oc2c(Cl)cc3cnccc3c2Cl)CC1 [Example 96, trans-4-(5,7-Dichloro-isoquinolin-6-yloxy)-cyclohexylamine]
++++ (5.0 ≦ pIC50 < 6.0) | N[C@H]1CC[C@@H](Oc2ccc3cnc(Nc4cccc(Cl)c4)cc3c2)CC1 [Example 147, cis-[6-(4-Amino-cyclohexyloxy)-isoquinolin-3-yl]-(3-chloro-phenyl)-amine]
+++++ (6.0 ≦ pIC50) | COc1cc(Nc2cc3cc(O[C@H]4CC[C@@H](N)CC4)ccc3cn2)cc(OC)c1OC.Cl [Example 149, cis-[6-(4-Amino-cyclohexyloxy)-isoquinolin-3-yl]-(3,4,5-trimethoxy-phenyl)-amine]
++++ (5.0 ≦ pIC50 < 6.0) | N[C@H]1CC[C@@H](Oc2ccc3cnc(Nc4cnccn4)cc3c2)CC1 [Example 150, cis-[6-(4-Amino-cyclohexyloxy)-isoquinolin-3-yl]-pyrazin-2-yl-amine]
+++++ (6.0 ≦ pIC50) | CCc1cncc2ccc(O[C@H]3CC[C@@H](N)CC3)cc12 [Example 156, cis-4-(4-Ethyl-isoquinolin-6-yloxy)-cyclohexylamine]
